Data published in patent US4093717A, “Antimicrobial compositions” (University of Mississippi, priority 1975, dated 1978).
Values after ≈ are worked out from the molar mass of the structure shown. Where a name gives a salt, the structure may show the parent alone. Read-outs that look alike come from different tables or passages of the source.

Columns and labels:
[1] = system: S. cerevisiae; test: two-fold serial dilution assay (MIC), S. cerevisiae; format: cell-based; settings: Saccharomyces cerevisiae, read-out: Minimum Inhibitory Concentration, S. cerevisiae
Description: (§1) Quantitive assay of antimicrobial activity of the inventive compositions against selected test organisms was made using a two-fold serial dilution in Eugonbroth or Mycophil broth. The concentration of pure alkaloids in the initial dilution tube was 50 mcg/ml. Streptomycin sulfate (Nutrional Biochemical) and amphotericin B (Calbiochem "A" grade) at the same concentrations as above were used as standard antibiotics for comparison with the activities of the alkaloids against bacteria and yeast species, respectively. Cultures used in the serial dilution assay included S. aureus, B. subtilis, M. smegmatis, C. albicans, and S. cerevisiae. Readings were taken after incubation times of 24 hours for all organisms except M. smegmatis, which was read at 72 hours. The concentration mcg/ml of the tube of highest dilution which was free from growth was recorded as the minimal inhibitory concentration in Table 3.

[2] = system: C. albicans; test: two-fold serial dilution assay (MIC), C. albicans; format: cell-based, Candida albicans; settings: for MIC: Candida albicans, read-out: Minimum Inhibitory Concentration, C. Albicans
Description: as §1

[3] = system: Bacillus subtilis ATCC 6633; test: agar well diffusion assay, B. subtilis; format: cell-based; settings: read-out: width of the clear zone of inhibition, B. subtilis
Procedure: (§2) Bacterial test organisms were cultured in Eugonager and Eugonbroth (BBL), and fungi and yeasts were cultured in Mycophil (BBL) agar and broth. Antimicrobial activity was recorded as the width (in millimeters) of the clear zone of inhibition surrounding the agar well.
(§3) Qualitative evaluation of antimicrobial activity of the inventive extracts, fractions, and pure compounds was accomplished using an agar well diffusion assay. As set out hereinbefore, the inventive compositions were tested for activity against the following microorganisms: Staphylococcus aureus ATCC 6538; Escherichia coli ATCC 10536; Mycobacterium smegmatis ATCC 607; Pseudomonas aeruginosa ATCC 15442; Candida albicans ATCC 10321; Saccharomyces cerevisiae ATCC 9763; and Asperigillus niger ATCC 16888. In addition, the compounds of the preferred embodiments were also tested against Bacillus subtilis ATCC 6633. Bacterial test organisms were cultured in Eugonagar and Eugonbroth (BBL), and fungi and yeasts were cultured in Mycophil (BBL) agar and broth.
(§4) Plates for assay were prepared by uniformly seeding sterily, partially cooled, molten agar with dilutions of test organisms grown in broth or suspensions of conidia produced on agar slants (A. niger). The seeded agar medium was dispensed into 100 × 15 mm sterile petri dishes (15 ml per dish). Cylindrical plugs were removed from the solidified agar plates, using a sterile cork borer, to produce wells having a diameter of approximately 11 mm. One hundred microliters of a solution or suspension of an extract, fraction, or pure compound was added to each well. The extracts and fractions were tested as solutions or suspensions in a concentration of 20 mg/ml; pure compounds were tested at 1 mg/ml. When solvents other than water were required to dissolve extracts or compounds, solvent blanks were run against each test organism.
(§5) Plates prepared as described above were incubated as follows: Bacteria were grown at 37° C. for 24 hours, with the exception of M. smegmatis, which grows more slowly and requires incubation at 37° C. for 48 hours, before reading. Fungi or yeast were incubated at 25° C. for 24 hours, before growth was evident.
(§6) Antimicrobial activity was recorded as the width (in mm) of the clear zone of inhibition surrounding the agar well.

[4] = system: Candida albicans; test: agar well diffusion assay, C. albicans; format: cell-based; settings: read-out: width of the clear zone of inhibition, C. Albicans
Procedure: as §2, §3, §4, §5, §6

[5] = system: S. aureus; test: two-fold serial dilution assay (MIC), S. aureus; format: cell-based; settings: Staphylococcus aureus; 24 hours; read-out: Minimum Inhibitory Concentration, S. aureus
Description: as §1

[6] = system: M. smegmatis; test: two-fold serial dilution assay (MIC), M. smegmatis; format: cell-based, Mycobacterium smegmatis; settings: Mycolicibacterium smegmatis, read-out: Minimum Inhibitory Concentration, M. Smegmatis
Description: as §1

[7] = system: Staphylococcus aureus ATCC 6538; test: agar well diffusion assay, S. aureus; format: cell-based; settings: read-out: width of the clear zone of inhibition, S. aureus
Procedure: as §2, §3, §4, §5, §6

[8] = system: Saccharomyces cerevisiae ATCC 9763; test: agar well diffusion assay, S. cerevisiae; format: cell-based; settings: read-out: width of the clear zone of inhibition, S. cerevisiae
Procedure: as §2, §3, §4, §5, §6

[9] = system: B. subtilis; test: two-fold serial dilution assay (MIC), B. subtilis; format: cell-based; settings: Bacillus subtilis, read-out: Minimum Inhibitory Concentration, R. Subtilis
Description: as §1

[10] = system: Mycobacterium smegmatis ATCC 607; test: agar well diffusion assay, M. smegmatis; format: cell-based; settings: Mycolicibacterium smegmatis, read-out: width of the clear zone of inhibition, M. smegmatis
Procedure: as §2, §3, §4, §5, §6

[11] = system: test organisms; test: qualitative antimicrobial activity of extracts, fractions and compounds; format: cell-based; settings: text statement on extracts, fractions, compounds
Procedure: Qualitative evaluation of antimicrobial activity of the inventive extracts, fractions, and pure compounds was accomplished using an agar well diffusion assay. As set out hereinbefore, the inventive compositions were tested for activity against the following microorganisms: Staphylococcus aureus ATCC 6538; Escherichia coli ATCC 10536; Mycobacterium smegmatis ATCC 607; Pseudomonas aeruginosa ATCC 15442; Candida albicans ATCC 10321; Saccharomyces cerevisiae ATCC 9763; and Asperigillus niger ATCC 16888. […] Bacterial test organisms were cultured in Eugonagar and Eugonbroth (BBL), and fungi and yeasts were cultured in Mycophil (BBL) agar and broth.

[12] = system: Asperigillus niger ATCC 16888; test: agar well diffusion assay, A. niger; format: cell-based; settings: Aspergillus niger, read-out: width of the clear zone of inhibition, A. niger
Procedure: as §2
as §3, with “broth. […]” for “broth.”
Plates prepared as described above were incubated as follows: Bacteria were grown at 37° C. for 24 hours, with the exception of M. smegmatis, which grows more slowly and requires incubation at 37° C. for 48 hours, before reading. […]
as §6

[13] = system: S. aureus, B. subtilis, M. smegmatis, C. albicans, and S. cerevisiae; test: two-fold serial dilution assay, activity overall against bacteria and yeasts; format: cell-based; settings: from the data in Table 3
Description: as §1

[14] = ATCC6633, 37° C., 24 hours, pure compounds 1 mg/ml, 100 microliters per well
[15] = 25° C., 24 hours, extracts and fractions 20 mg/ml, pure compounds 1 mg/ml, 100 microliters per well
[16] = ATCC6538, 37° C., 24 hours, extracts and fractions 20 mg/ml, pure compounds 1 mg/ml, 100 microliters per well
[17] = ATCC9763, 25° C., 24 hours, pure compounds 1 mg/ml, 100 microliters per well
[18] = ATCC607, 37° C., 48 hours, extracts and fractions 20 mg/ml, pure compounds 1 mg/ml, 100 microliters per well

Row | SMILES | MIC ([1]; 24 h) [µg/mL] | MIC ([2]; 24 h) [µg/mL] | zone of inhibition at 1000 µg/mL ([3]; ATCC6633, 24 h) [mm] | zone of inhibition at 1000 µg/mL ([4]; 24 h) [mm] | MIC [5] [µg/mL] | MIC ([6]; 72 h) [µg/mL] | zone of inhibition at 1000 µg/mL ([7]; ATCC6538, 24 h) [mm] | zone of inhibition at 1000 µg/mL ([8]; ATCC9763, 24 h) [mm] | MIC ([9]; 24 h) [µg/mL] | zone of inhibition at 1000 µg/mL ([10]; ATCC607, 48 h) [mm] | antimicrobial activity (in words) [11] | zone of inhibition at 1000 µg/mL [3, 14] [mm] | zone of inhibition at 1000 µg/mL [4, 15] [mm] | MIC ([1]; 24 hours) [µg/mL] | MIC ([6]; 72 hours) [µg/mL] | MIC ([2]; 24 hours) [µg/mL] | zone of inhibition at 1000 µg/mL [7, 16] [mm] | zone of inhibition at 1000 µg/mL [8, 17] [mm] | MIC ([9]; 24 hours) [µg/mL] | zone of inhibition at 1000 µg/mL [10, 18] [mm] | further results
1 | C[C@@H]1[C@H](O)[C@@H](C)/C=C/C=C/C=C/C=C/C=C/C=C/C=C/[C@H](O[C@@H]2O[C@H](C)[C@@H](O)[C@H](N)[C@@H]2O)C[C@@H]2O[C@](O)(C[C@@H](O)C[C@@H](O)[C@H](O)CC[C@@H](O)C[C@@H](O)CC(=O)O[C@H]1C)C[C@H](O)[C@H]2C(=O)O [amphotocericin B, amphotericin B, reference compound] | 0.78 (≈ 0.844 µM) | 0.78 (≈ 0.844 µM) |  |  |  |  |  |  |  |  |  |  |  |  |  |  |  |  |  |  | 
2 | COc1cc2cc3c4c(cc(OC)c(OC)c4c2cc1OC)CCN3C [dehydroglaucine] | 50 (≈ 141 µM) | 25 (≈ 70.7 µM) | 7 | 6 | 25 (≈ 70.7 µM) | 25 (≈ 70.7 µM) | 4 | 6 | 25 (≈ 70.7 µM) | 8 | exhibited antimicrobial activity |  |  |  |  |  |  |  |  |  | antimicrobial activity (in words) ([11]; listed as Dehydroglaucine): exhibit all of the antimicrobial activity in that Fraction
3 | C[n+]1ccc2cc3c(c4c2c1C(=O)c1ccccc1-4)OCO3 [liriodenine methiodide] |  |  |  |  | 6.2 |  |  |  |  |  |  | 6 | 17 | 3.1 | 3.1 | 0.78 | 6 | 15 | 3.1 | 14 | zone of inhibition at 1000 µg/mL ([12]; ATCC16888, 25° C., 24 hours, extracts and fractions 20 mg/ml, pure compounds 1 mg/ml, 100 microliters per well): 4 mm; in vitro activity compared with standard antibiotics or other alkaloids [13]: in vitro activity comparable to that of streptomycin sulfate and amphotericin B
4 | O=C1c2ccccc2-c2c3c(cc4ccnc1c24)OCO3 [liriodenine] | 6.2 (≈ 22.5 µM) | 6.2 (≈ 22.5 µM) | 8 | 3 | 3.1 (≈ 11.3 µM) | 1.56 (≈ 5.67 µM) | 5 | 5 | 0.39 (≈ 1.42 µM) | 11 | exhibited antimicrobial activity |  |  |  |  |  |  |  |  |  | zone of inhibition at 1000 µg/mL ([12]; ATCC16888, 24 h): 11 mm; in vitro activity compared with standard antibiotics or other alkaloids [13]: in vitro activity comparable to that of streptomycin sulfate and amphotericin B; antimicrobial activity (in words) ([11]; listed as Liriodenine): contained all of the antimicrobial activity in this fraction
5 | COc1cc2c(cc1OC)-c1c(OC)c(OC)cc3cc[n+](C)c(c13)C2=O [oxoglaucine methiodide] |  |  |  |  | 25 |  |  |  |  |  |  | 9 | 10 | 25 | 25 | 1.56 | 9 | 11 | 25 | 10 | activity against C. albicans (in words) ([2]; from the data in Table 3): particularly active against C. albicans
6 | [H]/N=C(/N)N[C@H]1[C@H](O)[C@@H](O)[C@H](O[C@@H]2O[C@@H](C)[C@](O)(C=O)[C@H]2O[C@@H]2O[C@@H](CO)[C@H](O)[C@@H](O)[C@@H]2NC)[C@@H](N/C(N)=N\[H])[C@@H]1O [streptomycin sulfate, reference compound] |  |  |  |  | 3.1 | 0.78 |  |  | 1.56 |  |  |  |  |  |  |  |  |  |  |  | 
